Results taken from patent publication US11224224B2, “Thiobenzoimidazole as fungicides” (REDAG CROP PROTECTION LTD, priority 2017, dated 2022).
In brackets after ≈: the same amount, converted by molar mass.

What was measured:
Format in all cases: cell-based
Phytophthora cactorum = test: 96 well plate test (amended agar with spores); conditions: 96 well plate, 20, 2, 0.2 and 0.02 ppm, 1% PDA, 2 to 3 days (cells marked *), read-out: EC50 Phytophthora spp. (*96 well plate format vs. Phytophthora cactorum)
Description: Compounds were screened in 96 well plates with 10 compounds per plate. Each compound was screened using agar amended to 20, 2, 0.2 and 0.02 ppm, with Proline at 50 and 10 ppm and 0.2% DMSO used as controls. Each test concentration and standard was replicated twice on a plate. Compounds were screened against Phytophthora cactorum. The agar used in the test is a 1% PDA. 1000 spores/mL agar were added to the appropriate agar.
A ×10 stock solution in 2% DMSO was produced for each dose i.e. 200, 20, 2 and 0.2 ppm, and 10 μl of this added to the appropriate wells on the plate. An equivalent amount of 2% DMSO and Proline stock at 500 and 100 ppm were added for the controls. To each well 90 μl of the appropriate agar spore suspension was added to give the required final well concentrations. Plates were incubated at room temperature (18° C.) and assessed after 2 to 3 days. The amount of pathogen growth in each well was compared to the DMSO controls and an EC50 concentration was calculated. The results are provided in Table 1 in which G represents an EC50 above 20 ppm, F represents an EC50 of 1-20 ppm and E represents an EC50 less than 1 ppm.

Pythium ultimum [1] = test: Amended agar assay (PDA), colony growth; conditions: Globisporangium ultimum; 20 ppm in amended PDA, 18° C., reduction in colony growth vs control plate
Description: (§1) Testing was carried out on potato dextrose agar (PDA) amended with each compound at a test concentration of 20 ppm. Amended agar was poured into three replicate 9 cm petri dishes. Each replicate dish was inoculated in the centre with a 5 mm agar plug taken from the leading edge of a culture aged between 2 and 7 days old; the age of the culture was dependant on the growth rate of the pathogen being tested. The test pathogens were Pythium ultimum and Phytophthora cinnamomi. Plates were incubated at 18° C. and the diameter of each colony measured before growth on the fastest growing plate reached the plate edge. This varied between 2 and 7 days depending on the growth rate of test pathogens. The % reduction in colony growth compared to the control plate was calculated for each pathogen. The results are provided in Table 1, in which D represents no control detected at this concentration; C represents up to 50% control; B from 50 to 99% control; and A represents a control of greater than 99%, i.e. no detectable colony growth.
(§2) Alternatively, or in addition, the same assay was conducted at descending test concentrations with 5-fold dilutions typically down to 0.032 ppm though sometimes as low as 0.00026 ppm, and an EC50 (the concentration at which 50% control would be achieved) was determined. The results are provided in Table 1 in which G represents an EC50 above 20 ppm, F represents an EC50 of 1-20 ppm and E represents and EC50 less than 1 ppm.

Phytophthora cinnamomi = test: Amended agar assay (PDA), colony growth; conditions: Phytophthora cinnamomi; 20 ppm in amended PDA, 18° C., reduction in colony growth vs control plate; read-out: % control Phytophthora spp. 20 ppm
Description: as §1, §2

oomycete plant pathogens = test: Fungicidal activity testing, overall summary; conditions: summary statement on Table 1
Description: The activity of compounds of the invention was assessed by testing against certain oomycete plant pathogens and representative data are presented in Table 1.

Pythium ultimum [2] = test: Amended agar assay (PDA), colony growth; conditions: Globisporangium ultimum; read-out: % control Pythium ultimum 2 ppm

Compound: Clc1cncnc1-n1c(SCc2ccccn2)nc2ccccc21 [Example 59, 1-(5-Chloropyrimidin-4-yl)-2-((pyridin-2-ylmethyl)thio)-1H-benzo[d]imidazole]
- EC50 (Phytophthora cactorum): 1 to 20 µg/mL (≈ 2.83 to 56.5 µM)
- inhibition of growth at 20 ppm (Pythium ultimum [1]): > 99%
- inhibition of growth at 20 ppm (Phytophthora cinnamomi): > 99%
- control over the pathogens tested (oomycete plant pathogens): good to excellent control
- inhibition of growth at 2 ppm (Pythium ultimum [2]): > 99%
